Reference: EP3057951B1, “METHYLENE LINKED QUINOLINYL MODULATORS OF ROR-GAMMA-T” (Janssen Pharmaceutica NV, priority 2013, dated 2015)
Where “and” joins values, the source holds several entries; their conditions need not be identical. Equal values may be shown once. Where a name gives a salt, the structure may show the parent alone. Read-outs that look alike come from different tables or passages of the source. Values belong to the compound of their own block, whether it stands above or below them.

Key:
[1] = target: T1, wild type human RORγt ligand binding domain (RORyt LBD) (Homo sapiens, UniProt P51449); assay: RORγt ThermoFluor assay (thermal shift, binding affinity KD)
T1 construct: His-tag (N); TurboTEV protease cleavage site (ENLYFQG) (N); made in house; host or cells: E. coli (pHIS1, modified pET vector)
T1 sequence (P51449 258-518): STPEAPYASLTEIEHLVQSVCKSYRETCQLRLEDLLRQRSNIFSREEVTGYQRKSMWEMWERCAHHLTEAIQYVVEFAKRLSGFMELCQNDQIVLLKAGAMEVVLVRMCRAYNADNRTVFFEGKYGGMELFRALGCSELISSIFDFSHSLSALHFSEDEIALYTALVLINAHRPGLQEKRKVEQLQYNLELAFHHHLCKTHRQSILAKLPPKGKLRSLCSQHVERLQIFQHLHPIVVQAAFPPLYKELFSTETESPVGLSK

[2] = target: T2, wild type human RORγt LBD (Homo sapiens, UniProt P51449); assay: RORγt (LBD) Reporter Assay (GAL4-luciferase, HEK293T cells); format: cell-based; conditions: for inhibition at 6 µM: HEK-293T, read-out: RORγt (LBD) Reporter Assay, % inhibition @ 6 µM, 6 µM compound concentration; for RORγt (LBD) Reporter Assay, % inhibition @ 6 µM: 6 µM compound concentration
T2 construct: expressed in transfected cells; host or cells: HEK293T
T2 sequence (P51449 258-518): T1 sequence (P51449 258-518)

[3] = HEK293T cells, value after the comma with ∼, > or < could not be included in the average

SMILES: COc1nc2ccc(C(O)(c3ccc(F)cc3)c3cccnc3)cc2c(Cl)c1Cc1ccc(-n2cccn2)cc1 (stereo not drawn) [Example 158a, (3-(4-(1H-Pyrazol-1-yl)benzyl)-4-chloro-2-methoxyquinolin-6-yl)(4-fluorophenyl)(pyridin-3-yl)methanol]
- Kd [1]: 21 nM
- IC50 ([2]; HEK293T cells): 57 nM
- inhibition at 6 µM ([2]; HEK293T cells): 97%

SMILES: COc1nc2ccc(C(O)(c3cncn3C)C3CCOCC3)cc2c(Cl)c1Cc1ccc(-n2cccn2)cc1 (single isomer, unassigned) [Example 1c, (3-(4-(1H-Pyrazol-1-yl)benzyl)-4-chloro-2-methoxyquinolin-6-yl)(1-methyl-1H-imidazol-5-yl)(tetrahydro-2H-pyran-4-yl)methanol]
- Kd [1]: 1.5 nM
- RORγt (LBD) Reporter Assay, % inhibition @ 6 µM [2]: 98%
- IC50 [2, 3]: 22 nM

SMILES: COc1ccc(C(O)(c2cccnc2)c2ccc3nc(OC)c(Cc4ccc(-n5cccn5)cc4)c(Cl)c3c2)cc1OC (stereo not drawn) [Example 159a, (3-(4-(1H-Pyrazol-1-yl)benzyl)-4-chloro-2-methoxyquinolin-6-yl)(3,4-dimethoxyphenyl)(pyridin-3-yl)methanol]
- Kd [1]: 29 nM
- IC50 ([2]; HEK293T cells): 120 nM
- inhibition at 6 µM ([2]; HEK293T cells): 107%

SMILES: Cc1ccc(C(O)(c2ccc3nc(N4CC(F)(F)C4)c(Cc4ccc(C(F)(F)F)cc4)c(Cl)c3c2)c2cnnn2C)c(C)n1 (single isomer, unassigned) [Example 148c, {4-Chloro-2-(3,3-difluoroazetidin-1-yl)-3-[4-(trifluoromethyl)benzyl]quinolin-6-yl}(2,6-dimethylpyridin-3-yl)(1-methyl-1H-1,2,3-triazol-5-yl)methanol]
- Kd [1]: 0.39 nM
- RORγt (LBD) Reporter Assay, % inhibition @ 6 µM ([2]; HEK293T cells): 98%
- IC50 ([2]; HEK293T cells): ~6 nM

SMILES: CCc1nc2ccc(C(O)(c3cnnn3C)c3cnc(C)n3C)cc2c(Cl)c1Cc1ccc(C(F)(F)F)cc1 (single isomer, unassigned) [Example 25b, (4-Chloro-2-ethyl-3-(4-(trifluoromethyl)benzyl)quinolin-6-yl)(1,2-dimethyl-1H-imidazol-5-yl)(1-methyl-1H-1,2,3-triazol-5-yl)methanol]
- Kd [1]: 0.01 nM
- IC50 [2, 3]: 1.9 nM and < 3 nM
- inhibition at 6 µM [2]: 100%

SMILES: COc1nc2ccc(C(O)(c3cccnc3)c3ccc(Cl)c(Cl)c3)cc2c(Cl)c1Cc1ccc(-n2cccn2)cc1 (single isomer, unassigned) [Example 161c, (3-(4-(1H-Pyrazol-1-yl)benzyl)-4-chloro-2-methoxyquinolin-6-yl)(3,4-dichlorophenyl)(pyridin-3-yl)methanol]
- Kd [1]: 11 nM
- RORγt (LBD) Reporter Assay, % inhibition @ 6 µM ([2]; HEK293T cells): 102%
- IC50 ([2]; HEK293T cells): 78 nM

SMILES: COc1nc2ccc(C(O)(c3cncn3C)C3CCOCC3)cc2c(C#N)c1Cc1ccc(-n2cccn2)cc1 (stereo not drawn) [Example 2b, 3-(4-(1H-Pyrazol-1-yl)benzyl)-6-(hydroxy(1-methyl-1H-imidazol-5-yl)(tetrahydro-2H-pyran-4-yl)methyl)-2-methoxyquinoline-4-carbonitrile]
- Kd [1]: 110 nM
- IC50 [2, 3]: 130 nM
- inhibition at 6 µM [2]: 101%

SMILES: COc1nc2ccc(C(O)(c3ccc(C)nc3C)c3cnnn3C)cc2c(C#N)c1Cc1ccc(C(F)(F)F)nc1 (single isomer, unassigned) [Example 41b, 6-((2,6-Dimethylpyridin-3-yl)(hydroxy)(1-methyl-1H-1,2,3-triazol-5-yl)methyl)-2-methoxy-3-((6-(trifluoromethyl)pyridin-3-yl)methyl)quinoline-4-carbonitrile]
- Kd [1]: 1200 nM
- IC50 [2, 3]: 1600 nM
- inhibition at 6 µM [2]: 92%

SMILES: COc1nc2ccc(C(O)(c3cccnc3)c3ccc(Cl)c(Cl)c3)cc2c(Cl)c1Cc1ccc(-n2cccn2)cc1 (single isomer, unassigned) [Example 161b, (3-(4-(1H-Pyrazol-1-yl)benzyl)-4-chloro-2-methoxyquinolin-6-yl)(3,4-dichlorophenyl)(pyridin-3-yl)methanol]
- Kd [1]: 280 nM
- IC50 ([2]; HEK293T cells): 160 nM
- inhibition at 6 µM ([2]; HEK293T cells): 108%

SMILES: COc1nc2ccc(C(O)(c3ccc(C)nc3C)C3CN(C(C)=O)C3)cc2c(Cl)c1Cc1ccc(C(F)(F)F)cc1 (racemic) [Example 87a, 1-(3-((4-Chloro-2-methoxy-3-(4-(trifluoromethyl)benzyl)quinolin-6-yl)(2,6-dimethylpyridin-3-yl)(hydroxy)methyl)azetidin-1-yl)ethanone]
- Kd [1]: 1.8 nM
- IC50 [2, 3]: 6.8 nM
- inhibition at 6 µM [2]: 100%

Next, values leading:

- Kd [1]: 150 nM
- IC50 [2, 3]: 250 nM
- inhibition at 6 µM [2]: 94%
SMILES: COc1nc2ccc(C(O)(c3ccc(C#N)cc3)c3cncn3C)cc2c(Cl)c1Cc1ccc(C(F)(F)F)nc1 (single isomer, unassigned) [Example 38b, 4-((4-Chloro-2-methoxy-3-((6-(trifluoromethyl)pyridin-3-yl)methyl)quinolin-6-yl)(hydroxy)(1-methyl-1H-imidazol-5-yl)methyl)benzonitrile]

- Kd [1]: 1.4 nM
- IC50 [2, 3]: 4.4 nM
- inhibition at 6 µM [2]: 101%
SMILES: CC(=O)N1CCC(C(O)(c2ccccc2)c2ccc3nc(C)c(Cc4ccc(C(F)(F)F)cc4)c(Cl)c3c2)CC1 (stereo not drawn) [Example 27a, 1-(4-((4-Chloro-2-methyl-3-(4-(trifluoromethyl)benzyl)quinolin-6-yl)(hydroxy)(phenyl)methyl)piperidin-1-yl)ethanone]

- Kd [1]: 15000 nM
- IC50 ([2]; HEK293T cells): > 6000 nM
- inhibition at 6 µM ([2]; HEK293T cells): 44%
SMILES: Cn1cncc1C(O)(c1ccc(C(F)(F)F)nc1)c1ccc2nc(-c3nccn3C)c(Cc3ccccc3)c(C#N)c2c1 (stereo not drawn) [Example 153, 3-Benzyl-6-(hydroxy(1-methyl-1H-imidazol-5-yl)(6-(trifluoromethyl)pyridin-3-yl)methyl)-2-(1-methyl-1H-imidazol-2-yl)quinoline-4-carbonitrile^.TFA]

- Kd [1]: 14 nM
- IC50 [2, 3]: ~4000 nM
- inhibition at 6 µM [2]: 80%
SMILES: Cn1cncc1C(O)(c1ccc(C(F)(F)F)nc1)c1ccc2nc(Cl)c(Cc3ccccc3)c(Cl)c2c1 (stereo not drawn) [Example 109, (3-Benzyl-2,4-dichloroquinolin-6-yl)(1-methyl-1H-imidazol-5-yl)(6-(trifluoromethyl)pyridin-3-yl)methanol•TFA]

- Kd [1]: 4.5 nM
- RORγt (LBD) Reporter Assay, % inhibition @ 6 µM ([2]; HEK293T cells): 94%
- IC50 ([2]; HEK293T cells): 140 nM
SMILES: Cc1cc(C(O)(c2ccc(C(F)(F)F)nc2)c2cncn2C)cc2c(Cl)c(Cc3ccc(-n4cccn4)cc3)c(N3CCC3)nc12 (single isomer, unassigned) [Example 137c, {2-Azetidin-1-yl-4-chloro-8-methyl-3-[4-(1H-pyrazol-1-yl)benzyl]quinolin-6-yl}(1-methyl-1H-imidazol-5-yl)[6-(trifluoromethyl)pyridin-3-yl]methanol]

- Kd [1]: 0.7 nM
- IC50 [2, 3]: 3.1 nM
- inhibition at 6 µM [2]: 99%
SMILES: COc1nc2ccc(C(O)(c3cnnn3C)c3cnnn3C)cc2c(Cl)c1Cc1ccc(C(F)(F)F)cc1 [Example 12, (4-Chloro-2-methoxy-3-(4-(trifluoromethyl)benzyl)quinolin-6-yl)bis(1-methyl-1H-1,2,3-triazol-5-yl)methanol]

- Kd [1]: 20 nM
- IC50 [2, 3]: 97 nM
- inhibition at 6 µM [2]: 93%
SMILES: Cn1cncc1C(O)(c1ccc2nc(C(F)(F)F)c(Cc3ccccc3)c(C#N)c2c1)c1ccccn1 (racemic) [Example 99a, 3-Benzyl-6-(hydroxy(1-methyl-1H-imidazol-5-yl)(pyridin-2-yl)methyl)-2-(trifluoromethyl)quinoline-4-carbonitrile•TFA]

- Kd [1]: 1300 nM
- IC50 [2, 3]: 1900 nM
- inhibition at 6 µM [2]: 94%
SMILES: Cn1cncc1C(O)(c1ccc(Cl)cc1)c1ccc2nc(C(F)(F)F)c(Cc3ccccc3)c(O)c2c1 (stereo not drawn) [Example 102, 3-Benzyl-6-((4-chlorophenyl)(hydroxy)(1-methyl-1H-imidazol-5-yl)methyl)-2-(trifluoromethyl)quinolin4-ol•TFA]

- Kd [1]: 480 nM
- IC50 [2, 3]: 740 nM
- inhibition at 6 µM [2]: 95%
SMILES: COc1nc2ccc(C(O)(c3ccc(C)nc3C)c3cncn3C)cc2c(Cl)c1Cc1ccc(C(F)(F)F)cc1 (single isomer, unassigned) [Example 88b, (4-Chloro-2-methoxy-3-(4-(trifluoromethyl)benzyl)quinolin-6-yl)(2,6-dimethylpyridin-3-yl)(1-methyl-1H-imidazol-5-yl)methanol]

- Kd [1]: 0.08 nM
- RORγt (LBD) Reporter Assay, % inhibition @ 6 µM [2]: 98%
- IC50 [2, 3]: 10 nM
SMILES: COc1nc2ccc(C(O)(c3ccc(C)nc3C)c3cncn3C)cc2c(Cl)c1Cc1ccc(C(F)(F)F)cc1 (single isomer, unassigned) [Example 88c, (4-Chloro-2-methoxy-3-(4-(trifluoromethyl)benzyl)quinolin-6-yl)(2,6-dimethylpyridin-3-yl)(1-methyl-1H-imidazol-5-yl)methanol]

- Kd [1]: 9000 nM
- RORγt (LBD) Reporter Assay, % inhibition @ 6 µM ([2]; HEK293T cells): 59%
- IC50 ([2]; HEK293T cells): ~6000 nM
SMILES: COc1nc2ccc(C(O)(c3ncccn3)c3cncn3C)cc2c(Cl)c1Cc1ccc(-n2cccn2)cc1 (single isomer, unassigned) [Example 131b, {4-Chloro-2-methoxy-3-[4-(1H-pyrazol-1-yl)benzyl]quinolin-6-yl}(1-methyl-1H-imidazol-5-yl)pyrimidin-2-ylmethanol]

- Kd [1]: 0.25 nM
- IC50 [2, 3]: 11 nM
- inhibition at 6 µM [2]: 99%
SMILES: Cc1ccc(C(O)(c2ccc3nc(C)c(Cc4ccc(C(F)(F)F)cc4)c(Cl)c3c2)c2cnnn2C)c(C)n1 (stereo not drawn) [Example 28a, (4-Chloro-2-methyl-3-(4-(trifluoromethyl)benzyl)quinolin-6-yl)(2,6-dimethylpyridin-3-yl)(1-methyl-1H-1,2,3-triazol-5-yl)methanol]
